Reference: US5198427A, “Natural intense sweeteners” (Research Corporation Technologies, Inc., priority 1990, dated 1993)
Read-outs that look alike come from different tables or passages of the source.

How the values were obtained:
[1] = Acute toxicity in mice, single oral dose; type: in vivo, male Swiss-Webster mice; details: for Average body weight of test animals, Day 0 / Average body weight of test animals, Day 1 / Average body weight of test animals, Day 3 / Average body weight of test animals, Day 7 / Average body weight of test animals, Day 14: 1 g/kg oral intubation; for Average body weight of test animals, Day 0: day 0 (prior to administration); for t (body weight, test vs control), Day 0 / t (body weight, test vs control), Day 1 / t (body weight, test vs control), Day 3 / t (body weight, test vs control), Day 7 / t (body weight, test vs control), Day 14: 1 g/kg oral, 0.95 confidence
Description: The sweet isolates, abrusosides A-D, are each tested for acute toxicity in mice. Experiments are carried out with male Swiss-Webster mice (6-8 weeks old), that are housed in temperature-controlled rooms with a 12-hr light/dark cycle, and allowed free access to water and food. After acclimatization for three days, groups of 10 animals receive a single 1 g/kg body weight dose of either abrusoside A, B, C, or D by oral intubation. Test materials are suspended in 1% aqueous sodium carboxymethylcellulose. A control group treated with only 1% sodium caroboxymethylcellulose is also included in the experiment. In all experiments, no incidence of mortality occurred for up to 14 days after dosing. Animals are examined for body weight variations on days 0 (prior to administration), 1, 3, 7, and 14. Body weight variations between treated and control groups are analyzed by one-way analysis of variance using an appropriate computer program. It may be seen from these tables that no significant differences in body weight variation occurred between each of the four test compounds and the controls, when assessed for a fourteen day period following compound administration.

[2] = tested on: Salmonella typhimurium strain TM677; type: cell-based; details: DMSO
Description: Salmonella typhimurium strain TM677, carrying the "R-factor" plasmid pKM101, is used for the assessment of mutagenic activity. Mutagenic assays are conducted on abrusosides A, B, C, and D, both in the absence and presence of a metabolic activating agent, obtained from a 9,000 × g supernatant fraction from the livers of […] rats. The following protocols are used in this procedure.
Male Sprague-Dawley rats (body weight 100-120 g) were housed in air-conditioned quarters, with a 12 hr/12 hr light-dark cycle, and are given food and water ad libitum. The rats (groups of 10) are given single intraperitoneal injections of Aroclor 1254 (400 mg/kg) in corn oil. Four days after the treatment with Aroclor 1254, the rats are sacrificed by decapitation. Their livers are immediately excised, rinsed several times with cold 0.14 M NaCl, minced, and homogenized with 3 volumes (v/w) of 50 mM Tris HCl, pH 5, containing 0.14 M KCl, using a glass homogenizing vessel and a motor-driven Teflon pestle. The homogenate is filtered through cheese-cloth, and centrifuged at 9,000 g for 20 minutes to yield an S-9 fraction. The isolation procedures described above are conducted at 0°-4° C., and the isolated S-9 fraction is stored in small aliquots in liquid nitrogen.
Duplicate 0.98-ml reaction mixtures containing 0.1 mg of NADP^+, 1.0 mg of glucose-6-phosphate, 0.8 units of glucose-6-phosphate dehydrogenase, 0.67 mg of MgCl2, the S-9 fraction, and approximately 7×10^6 bacteria in logarithmic phase, are prepared in minimal essential medium. When metabolic activation is not required, only bacteria and minimal essential medium are mixed.
After addition of each test substance dissolved in 20 ul of DMSO, the mixtures are slowly rotated at 37° C. for 2 hours. Each reaction mixture is then quenched by addition of 4 ml phosphate-buffered saline. The bacteria are recovered by centrifugation, resuspended, diluted as appropriate, and plated, in triplicate, in the presence or absence of 8-azaguanine. Plates are scored […] on plates containing 8-azaguanine divided by the average number of plates not containing azaguanine, after correcting for dilution factors. The latter value is used to define the percentage of bacteria surviving the treatment, relative to a control in which only an equivalent amount of solvent had been added.
The spontaneous mutant fraction for this assay is 7.4±5×10^-5 (n=145). A compound is said to cause significant mutation if the induced mutant fraction is greater than or equal to two times the spontaneous mutant fraction.

[3] = Sensory evaluation by human taste panel; details: for Sweetness relative to a 2% aqueous solution of sucrose: ammonium salts, in water, human taste panel; for Sweetness relative to 2% sucrose: three-person panel, dilute ammonium hydroxide solution diluted with water
Description: Abrusoside A (4 mg) is dissolved in 0.033N ammonium hydroxide solution (0.2 ml), to which is added 1.8 ml of water to yield the equivalent of a 0.2 % w/v solution of abrusoside A. Aliquots (0.2 ml) of this solution are diluted with 0.4, 0.8, 1.3, and 1.8 ml water, respectively. The diluted solutions is tasted sequentially, in order to judge the intensity of sweetness equivalent to that of a 2% w/v aqueous sucrose solution. Similar procedures are used in the sensory evaluation of […], expect that the concentrations of the ammonium hydroxide solutions used are 0.05N for abrusosides B and C, and 0.025N for abrusoside D. These sensory experiments are performed by a small panel consisting of three persons.

[4] = cited from earlier work
[5] = 2.5 mg/ml, activating system none
[6] = 5.0 mg/ml, activating system none

## CC1=CC[C@@H]([C@@H](C)[C@H]2CC[C@@]3(C)[C@@H]4CC[C@H]5[C@](C)(C(=O)O)[C@@H](O[C@@H]6O[C@H](CO)[C@@H](O)[C@H](O)[C@H]6O)CC[C@@]56C[C@@]46CC[C@]23C)OC1=O [Abrusoside A]
[1]
  Average body weight of test animals, Day 0: 23.4 g
  Average body weight of test animals, Day 1: 23.7 g
  Average body weight of test animals, Day 3: 24.4 g
  Average body weight of test animals, Day 7: 25.4 g
  Average body weight of test animals, Day 14: 26.1 g
  t (body weight, test vs control), Day 0: 0.292
  t (body weight, test vs control), Day 1: 0.153
  t (body weight, test vs control), Day 3: 0.368
  t (body weight, test vs control), Day 7: 0.000
  t (body weight, test vs control), Day 14: 0.000
[2]; 2.5 mg/ml, Aroclor S-9
  % Survival: 100%
  Mutant Fraction: 8.1 × 10^5
[2]; [5]
  % Survival: 100%
  Mutant Fraction: 7.9 × 10^5
[2]; 5.0 mg/ml, Aroclor S-9
  % Survival: 100%
  Mutant Fraction: 7.3 × 10^5
[2]; [6]
  % Survival: 100%
  Mutant Fraction: 8.1 × 10^5
[3]
  Sweetness relative to a 2% aqueous solution of sucrose: 30 x
  Sweetness relative to 2% sucrose: 30 times

## COC(=O)[C@H]1O[C@@H](O[C@H]2[C@H](O[C@H]3CC[C@]45C[C@]46CC[C@]4(C)[C@@H]([C@H](C)[C@@H]7CC=C(C)C(=O)O7)CC[C@@]4(C)[C@@H]6CC[C@H]5[C@]3(C)C(=O)O)O[C@H](CO)[C@@H](O)[C@@H]2O)[C@H](O)[C@@H](O)[C@@H]1O [Abrusoside B]
[1]
  Average body weight of test animals, Day 0: 23.5 g
  Average body weight of test animals, Day 1: 23.7 g
  Average body weight of test animals, Day 3: 23.9 g
  Average body weight of test animals, Day 7: 25.0 g
  Average body weight of test animals, Day 14: 26.4 g
  t (body weight, test vs control), Day 0: 0.432
  t (body weight, test vs control), Day 1: 0.330
  t (body weight, test vs control), Day 3: 0.458
  t (body weight, test vs control), Day 7: 0.576
  t (body weight, test vs control), Day 14: 0.282
[2]; 2.5 mg/ml, Aroclor S-9
  % Survival: 100%
  Mutant Fraction: 7.2 × 10^5
[2]; [5]
  % Survival: 100%
  Mutant Fraction: 8.7 × 10^5
[2]; 5.0 mg/ml, Aroclor S-9
  % Survival: 100%
  Mutant Fraction: 8.2 × 10^5
[2]; [6]
  % Survival: 100%
  Mutant Fraction: 7.3 × 10^5
[3]
  Sweetness relative to a 2% aqueous solution of sucrose: 100 x
  Sweetness relative to 2% sucrose: 100 times

## CC1=CC[C@@H]([C@@H](C)[C@H]2CC[C@@]3(C)[C@@H]4CC[C@H]5[C@](C)(C(=O)O)[C@@H](O[C@@H]6O[C@H](CO)[C@@H](O)[C@H](O)[C@H]6O[C@@H]6O[C@H](CO)[C@@H](O)[C@H](O)[C@H]6O)CC[C@@]56C[C@@]46CC[C@]23C)OC1=O [Abrusoside C]
[1]
  Average body weight of test animals, Day 0: 23.4 g
  Average body weight of test animals, Day 1: 23.8 g
  Average body weight of test animals, Day 3: 24.3 g
  Average body weight of test animals, Day 7: 25.3 g
  Average body weight of test animals, Day 14: 26.9 g
  t (body weight, test vs control), Day 0: 0.282
  t (body weight, test vs control), Day 1: 0.371
  t (body weight, test vs control), Day 3: 0.302
  t (body weight, test vs control), Day 7: 0.129
  t (body weight, test vs control), Day 14: 0.930
[2]; 2.5 mg/ml, Aroclor S-9
  % Survival: 100%
  Mutant Fraction: 7.7 × 10^5
[2]; [5]
  % Survival: 100%
  Mutant Fraction: 8.1 × 10^5
[2]; 5.0 mg/ml, Aroclor S-9
  % Survival: 100%
  Mutant Fraction: 6.7 × 10^5
[2]; [6]
  % Survival: 100%
  Mutant Fraction: 7.6 × 10^5
[3]
  Sweetness relative to a 2% aqueous solution of sucrose: 50 x
  Sweetness relative to 2% sucrose: 50 times

## CC1(C)[C@@H](O[C@H]2O[C@H](C(=O)O)[C@@H](O)[C@H](O)[C@H]2O[C@@H]2O[C@H](C(=O)O)[C@@H](O)[C@H](O)[C@H]2O)CC[C@]2(C)[C@H]3C(=O)C=C4[C@@H]5C[C@@](C)(C(=O)O)CC[C@]5(C)CC[C@@]4(C)[C@]3(C)CC[C@@H]12 [Glycyrrhizin]
[4]; humans
  Retention of sodium, chlorine and water: can cause abnormal retention of sodium, chlorine and water in humans
[4]; mimics the effects of the adrenal cortex
  Adrenocorticomimetic activity: known adrenocorticomimetic activity

## Abrusoside D
[1]
  Average body weight of test animals, Day 0: 24.1 g
  Average body weight of test animals, Day 1: 24.4 g
  Average body weight of test animals, Day 3: 24.9 g
  Average body weight of test animals, Day 7: 25.7 g
  Average body weight of test animals, Day 14: 27.0 g
  t (body weight, test vs control), Day 0: 1.199
  t (body weight, test vs control), Day 1: 1.140
  t (body weight, test vs control), Day 3: 0.991
  t (body weight, test vs control), Day 7: 0.383
  t (body weight, test vs control), Day 14: 0.812
[2]; 2.5 mg/ml, Aroclor S-9
  % Survival: 100%
  Mutant Fraction: 11.8 × 10^5
[2]; [5]
  % Survival: 100%
  Mutant Fraction: 16.7 × 10^5
[2]; 5.0 mg/ml, Aroclor S-9
  % Survival: 100%
  Mutant Fraction: 11.0 × 10^5
[2]; [6]
  % Survival: 100%
  Mutant Fraction: 15.3 × 10^5
[3]; 0.04% w/v
  Duration of lingering sweetness: about 30 minutes
[3]
  Sweetness relative to a 2% aqueous solution of sucrose: 75 x
  Sweetness relative to 2% sucrose: 75 times
